For the assay, the system named is CbTA (ω-transaminase from Chloroflexi bacterium). Briefly: HPLC initial rate, Michaelis-Menten nonlinear fit. The settings on record: 0.02 mM PLP, glycine-NaOH pH 8.5, 45 °C. Type of assay: biochemical, Chloroflexota bacterium.

In the case of `C[C@@H](N)c1ccccc1` [(R)-MBA], the Michaelis constant (Km) (as a rule, the concentration of substrate that gives half-maximal velocity) (20 mM pyruvate co-substrate) was 14.7 mM.

Take `CC(=O)C(=O)O` [C1, pyruvate]: for the setting “20 mM (R)-MBA co-substrate”, the Km was determined as 2.83 mM.
